Assay results from ChEMBL document CHEMBL5360629, “AI-Powered Virtual Screening of Large Compound Libraries Leads to the Discovery of Novel Inhibitors of Sirtuin-1” (J Med Chem, 2023).
The source made the active and inactive calls. No cut-off for these calls is given here.

Assays:
[1] = molecular target: T1, NAD-dependent protein deacetylase sirtuin-1 (Homo sapiens) (UniProt Q96EB6); details: dose 20.0 µM
T1 sequence (whole entry): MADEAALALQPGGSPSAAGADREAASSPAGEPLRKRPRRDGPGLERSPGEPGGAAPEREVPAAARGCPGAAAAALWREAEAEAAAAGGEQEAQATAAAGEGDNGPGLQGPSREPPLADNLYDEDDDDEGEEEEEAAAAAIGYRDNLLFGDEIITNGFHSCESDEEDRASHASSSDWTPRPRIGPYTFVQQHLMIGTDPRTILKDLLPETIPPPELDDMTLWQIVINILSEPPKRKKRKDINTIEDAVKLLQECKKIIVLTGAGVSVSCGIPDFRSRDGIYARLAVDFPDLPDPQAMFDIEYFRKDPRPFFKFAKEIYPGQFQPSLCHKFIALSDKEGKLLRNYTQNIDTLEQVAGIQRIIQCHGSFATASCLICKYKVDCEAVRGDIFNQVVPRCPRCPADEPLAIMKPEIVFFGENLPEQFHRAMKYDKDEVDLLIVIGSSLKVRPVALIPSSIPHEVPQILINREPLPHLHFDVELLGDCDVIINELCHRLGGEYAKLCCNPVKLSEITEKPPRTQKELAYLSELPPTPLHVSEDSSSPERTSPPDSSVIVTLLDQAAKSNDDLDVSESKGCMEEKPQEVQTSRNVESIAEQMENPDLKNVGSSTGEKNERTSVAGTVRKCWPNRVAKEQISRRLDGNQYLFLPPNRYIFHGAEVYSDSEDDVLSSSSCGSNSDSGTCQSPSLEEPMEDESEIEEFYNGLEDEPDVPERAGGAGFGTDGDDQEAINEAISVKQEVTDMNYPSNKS
Description: Binding affinity to human recombinant truncated Sirtuin-1 expressed in Escherichia coli assessed as change in melting temperature at 20 uM by SYPRO orange dye based thermal shift assay

[2] = molecular target: Carbonic anhydrase (Homo sapiens) (UniProt P00918+P43166+P00915+P07451+P23280+O43570+Q9ULX7+Q16790+P22748+Q8N1Q1+Q9Y2D0+P35218); test: Binding affinity to carbonic anhydrase (unknown origin) assessed as change in melting temperature incubated for 15 mins by Sypro orange staining based thermal scanning analysis; assay type: protein assay; details: dose 0.01-1000 µM
[3] = molecular target: T2, NAD-dependent protein deacetylase sirtuin-1 (Homo sapiens, UniProt Q96EB6); test: Inhibition of Sirtuin-1 (unknown origin) incubated for 30 mins by luminogenic SIRT-Glo assay
T2 sequence (Q96EB6 whole entry): T1 sequence (whole entry)

| Structure (SMILES) | ΔTm [1] | Activity [2] | IC50 [3] |
| --- | --- | --- | --- |
| O=C(CCc1c[nH]c2ccccc12)NNC(=O)CCc1c[nH]c2ccccc12 | 2.8 °C | – | – |
| O=C(NCCc1c[nH]c2ccccc12)c1ccccc1O | 1.8 °C | Dose-Dependent Effect | 3.4 µM |
| O=S(=O)(NCCc1c[nH]c2ccccc12)c1cc(Cl)cc(Cl)c1 | 1 °C | – | – |
| O=C(CCc1ccccc1O)NCCc1c[nH]c2ccccc12 | 12.9 °C | – | – |
| O=C(Nc1ccccc1)Nc1ccc(NC(=O)c2ccc(Br)cc2)cc1 | 2.1 °C | – | – |
| NC(=O)c1ccc(N2CCN(C(c3ccccc3)c3ccccc3)CC2)c([N+](=O)[O-])c1 | 1 °C | – | – |
| COc1ccc(N2CCN(c3nc(-c4ccccc4)nc4ccccc34)CC2)cc1 | 1.6 °C | inactive | 40 µM |
